This passage reports IC50 results from patent US9468661B2, “Pyrrolidine derivatives and their use as complement pathway modulators” (priority 2012, dated 2016).

The target of the assay is human factor D (Homo sapiens (Human), UniProt P00746). Briefly: biochemical. It is filed as biochemical. The following applies: Factor D inhibition data using Method 1; recombinant human factor D 10 nM, substrate Z-Lys-thiobenzyl, fluorescence; read-out: IC50. In short, it runs like this: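 E. coli-expressed recombinant human factor D (10 nM) was preincubated with compound for 1 h at room temperature in 0.1 M Hepes pH 7.5, 1 mM MgCl2, 1 M NaCl, 0.05% CHAPS. Fluorescence (ex 485/em 535 nm) was read after adding Z-Lys-thiobenzyl (200 μM) and 2,4-dinitrobenzenesulfonyl-fluoresceine (25 μM); IC50 came from percent inhibition versus concentration.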
human factor D, sequence (P00746 26-253): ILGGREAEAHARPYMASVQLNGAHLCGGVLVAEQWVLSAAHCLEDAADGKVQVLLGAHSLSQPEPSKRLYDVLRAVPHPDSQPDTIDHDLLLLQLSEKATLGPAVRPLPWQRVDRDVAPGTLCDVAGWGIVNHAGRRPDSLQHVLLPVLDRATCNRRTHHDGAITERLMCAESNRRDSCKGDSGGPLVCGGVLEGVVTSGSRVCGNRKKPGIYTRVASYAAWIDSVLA
On to `NC(=O)c1nn(CC(=O)N2[C@@H]3C[C@@H]3C[C@H]2C(=O)NCC2CC2(F)F)c2ccccc12` (stereo partly drawn) [Example 67, 1-(2-{(1R,3S,5R)-3-[(2,2-Difluoro-cyclopropylmethyl)-carbamoyl]-2-aza-bicyclo[3.1.0]hex-2-yl}-2-oxo-ethyl)-1H-indazole-3-carboxylic acid amide], for which the concentration for half-maximal inhibition (IC50) came to 428 nM.
Consider `CC(=O)c1nn(CC(=O)N2[C@@H]3C[C@@H]3C[C@H]2C(=O)NC[C@@H]2CC2(Cl)Cl)c2ncccc12` [Example 68, (1R,3S,5R)-2-[2-(3-Acetyl-pyrazolo[3,4-b]pyridin-1-yl)-acetyl]-2-aza-bicyclo[3.1.0] hexane-3-carboxylic acid ((S)-2,2-dichloro-cyclopropylmethyl)-amide], for which the IC50 worked out at 177 nM.
For `CC(=O)c1nn(CC(=O)N2[C@@H]3C[C@@H]3C[C@H]2C(=O)NC[C@H]2CC2(Cl)Cl)c2ncccc12` [Example 69, (1R,3S,5R)-2-[2-(3-Acetyl-pyrazolo[3,4-b]pyridin-1-yl)-acetyl]-2-aza-bicyclo[3.1.0] hexane-3-carboxylic acid ((R)-2,2-dichloro-cyclopropylmethyl)-amide] the value was 53 nM; for `NC(=O)c1nn(CC(=O)N2[C@@H]3C[C@@H]3C[C@H]2C(=O)NC[C@@H]2CC2(Cl)Cl)c2ccccc12` [Example 70, 1-(2-{(1R,3S,5R)-3-[((S)-2,2-Dichloro-cyclopropylmethyl)-carbamoyl]-2-aza-bicyclo[3.1.0]hex-2-yl}-2-oxo-ethyl)-1H-indazole-3-carboxylic acid amide], 90 nM.
For `NC(=O)c1nn(CC(=O)N2[C@@H]3C[C@@H]3C[C@H]2C(=O)NC[C@@H]2CC2(Cl)Cl)c2cnccc12` [Example 71, 1-(2-{(1R,3S,5R)-3-[((S)-2,2-Dichloro-cyclopropylmethyl)-carbamoyl]-2-aza-bicyclo[3.1.0]hex-2-yl}-2-oxo-ethyl)-1H-pyrazolo[3,4-c]pyridine-3-carboxylic acid amide] the value was 136 nM; for `NC(=O)c1nn(CC(=O)N2[C@@H]3C[C@@H]3C[C@H]2C(=O)NC[C@H]2CC2(Cl)Cl)c2cnccc12` [Example 72, 1-(2-{(1R,3S,5R)-3-[((R)-2,2-Dichloro-cyclopropylmethyl)-carbamoyl]-2-aza-bicyclo[3.1.0]hex-2-yl}-2-oxo-ethyl)-1H-pyrazolo[3,4-c]pyridine-3-carboxylic acid amide], 36 nM; for `CC(=O)c1nn(CC(=O)N2[C@@H]3C[C@@H]3C[C@H]2C(=O)NC[C@H]2CC2(Cl)Cl)c2cnccc12` [Example 92, (1R,3S,5R)-2-[2-(3-Acetyl-pyrazolo[3,4-c]pyridin-1-yl)-acetyl]-2-aza-bicyclo[3.1.0] hexane-3-carboxylic acid ((R)-2,2-dichloro-cyclopropylmethyl)-amide], 24 nM.
Turning to `CC(=O)c1nn(CC(=O)N2[C@@H]3C[C@@H]3C[C@H]2C(=O)NC[C@@H]2CC2(Cl)Cl)c2ccc(OCc3ncccn3)cc12` [Example 93, (1R,3S,5R)-2-{2-[3-Acetyl-5-(pyrimidin-2-ylmethoxy)-indazol-1-yl]-acetyl}-2-aza-bicyclo[3.1.0] hexane-3-carboxylic acid ((S)-2,2-dichloro-cyclopropylmethyl)-amide], the IC50 is 19 nM.
For `NC(=O)c1nn(CC(=O)N2[C@@H]3C[C@@H]3C[C@H]2C(=O)NC[C@H]2CC2(Cl)Cl)c2ccncc12` [Example 95, 1-(2-{(1R,3S,5R)-3-[((R)-2,2-Dichlorocyclopropylmethyl)-carbamoyl]-2-aza-bicyclo[3.1.0]hex-2-yl}-2-oxo-ethyl)-1H-pyrazolo[4,3-c]pyridine-3-carboxylic acid amide] the value was 482 nM; for `NC(=O)c1nn(CC(=O)N2[C@@H]3C[C@@H]3C[C@H]2C(=O)NC[C@H]2CC2(Cl)Cl)c2cc(F)c(F)cc12` [Example 96, 1-(2-{(1R,3S,5R)-3-[((R)-2,2-Dichloro-cyclopropylmethyl)-carbamoyl]-2-aza-bicyclo[3.1.0]hex-2-yl}-2-oxo-ethyl)-5,6-difluoro-1H-indazole-3-carboxylic acid amide], 307 nM.
